Test [1] deals with HCV genotype 1b (Con1) replicon in HUH-7 cells. Description: HCV replicon luciferase reporter assay, genotype 1b. Format: cell-based. The note with it: Hepatitis C virus, Huh-7, 72 h, HCV genotype 1b replicon luciferase, 3 days incubation, read-out: LE_1b (EC50, range). Summed up:
(§1)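 Replicon inhibition for both genotypes was measured as Renilla luciferase signal (EnduRen, 7.5 μM final, 2 h) after 3-day, 37° C exposure of replicon-bearing HUH-7 cells in 4% FCS DMEM, 0.5% DMSO. The 1b construct carries S1179I; the 1a H77 construct carries P1496L and S2204I. Twenty-point, 3-fold dilutions were fitted four-parametrically for EC50, and CC50 was taken from multiplexed Cell Titer-Blue.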
For orientation: Replicon systems follow genome replication, usually without infectious particles.

For test [2], the system named is HCV genotype 1a (H77 strain) replicon in HUH-7 cells. Description: HCV replicon luciferase reporter assay, genotype 1a. Format: cell-based. To be noted: Hepatitis C virus, Huh-7, 72 h, HCV genotype 1a replicon luciferase, 3 days incubation, read-out: LE_1a (EC50, range). Summed up:
as §1

Where two headings read alike, the source gives them in different places.

Turning to `CC[C@@H]1C[C@H](C)CC/C=C\[C@@H]2C[C@@]2(C(=O)NS(=O)(=O)C2(C)CC2)NC(=O)[C@@H]2C[C@@H](Oc3nc(OC)cc4cc(F)ccc34)CN2C(=O)[C@H]1NC(=O)OC(C)(C)C(F)(F)F` [Compound 3220, 1,1,1-trifluoro-2-methylpropan-2-yl((2R,6S,7R,9R,13aS,14aR,16aS,Z)-7-ethyl-2-((6-fluoro-3-methoxyisoquinolin-1-yl)oxy)-9-methyl-14a-(((1-methylcyclopropyl)sulfonyl)carbamoyl)-5,16-dioxo-1,2,3,5,6,7,8,9,10,11,13a,14,14a,15,16,16a-hexadecahydrocyclopropa[e]pyrrolo[1,2-a][1,4]diazacyclopentadecin-6-yl)carbamate], the EC50 in test [1] lay in the range of 0.1 to 0.5 nM; in test [2] it was 1.01 to 5 nM.
Consider `CC[C@@H]1C[C@H](C)CC/C=C\[C@@H]2C[C@@]2(C(=O)NS(=O)(=O)C2(C)CC2)NC(=O)[C@@H]2C[C@@H](Oc3nccc4cc(OC)c(Cl)cc34)CN2C(=O)[C@H]1NC(=O)OC(C)(C)C(F)(F)F` [Compound 3222, 1,1,1-trifluoro-2-methylpropan-2-yl((2R,6S,7R,9R,13aS,14aR,16aS,Z)-2-((7-chloro-6-methoxyisoquinolin-1-yl)oxy)-7-ethyl-9-methyl-14a-(((1-methylcyclopropyl)sulfonyl)carbamoyl)-5,16-dioxo-1,2,3,5,6,7,8,9,10,11,13a,14,14a,15,16,16a-hexadecahydrocyclopropa[e]pyrrolo[1,2-a][1,4]diazacyclopentadecin-6-yl)carbamate], for which the EC50 in test [1] and in test [2] was 1.01 to 5 nM throughout.
Take `CC[C@@H]1C[C@H](C)CC/C=C\[C@@H]2C[C@@]2(C(=O)NS(=O)(=O)C2(C)CC2)NC(=O)[C@@H]2C[C@@H](Oc3nccc4cc(OC)c(Cl)cc34)CN2C(=O)[C@H]1NC(=O)OC(C)(C)C(C)(F)F` [Compound 3224, 3,3-difluoro-2-methylbutan-2-yl((2R,6S,7R,9R,13aS,14aR,16aS,Z)-2-((7-chloro-6-methoxyisoquinolin-1-yl)oxy)-7-ethyl-9-methyl-14a-(((1-methylcyclopropyl)sulfonyl)carbamoyl)-5,16-dioxo-1,2,3,5,6,7,8,9,10,11,13a,14,14a,15,16,16a-hexadecahydrocyclopropa[e]pyrrolo[1,2-a][1,4]diazacyclopentadecin-6-yl)carbamate]: the EC50 in test [1] and in test [2] was 1.01 to 5 nM throughout.
For `CC[C@@H]1C[C@H](C)CC/C=C\[C@@H]2C[C@@]2(C(=O)NS(=O)(=O)C2(C)CC2)NC(=O)[C@@H]2C[C@@H](Oc3nccc4cc(OC)c(Cl)cc34)CN2C(=O)[C@H]1NC(=O)OC(C)(C)C(F)F` [Compound 3226, 1,1-difluoro-2-methylpropan-2-yl((2R,6S,7R,9R,13aS,14aR,16aS,Z)-2-((7-chloro-6-methoxyisoquinolin-1-yl)oxy)-7-ethyl-9-methyl-14a-(((1-methylcyclopropyl)sulfonyl)carbamoyl)-5,16-dioxo-1,2,3,5,6,7,8,9,10,11,13a,14,14a,15,16,16a-hexadecahydrocyclopropa[e]pyrrolo[1,2-a][1,4]diazacyclopentadecin-6-yl)carbamate], the EC50 was in the range of 0.51 to 1 nM in test [1] and 1.01 to 5 nM in test [2].
Turning to `CC[C@@H]1C[C@H](C)CC/C=C\[C@@H]2C[C@@]2(C(=O)NS(=O)(=O)C2CC2)NC(=O)[C@@H]2C[C@H](Oc3ncc(OC)c4ccc(F)cc34)CN2C(=O)[C@@H]1NC(=O)OC(C)(C)C` [Compound 4001, tert-butyl tert-butyl (2R,6S,7R,9R,13aS,14aR,16aS,Z)-14a-(cyclopropylsulfonylcarbamoyl)-7-ethyl-2-(7-fluoro-4-methoxyisoquinolin-1-yloxy)-9-methyl-5,16-dioxo-1,2,3,5,6,7,8,9,10,11,13a,14,14a,15,16,16a-hexadecahydrocyclopropa[e]pyrrolo[1,2-a][1,4]diazacyclopentadecin-6-ylcarbamate], the concentration for a half-maximal effect (EC50) in test [1] and in test [2] was under 5.46 nM in each case.
For `CC[C@@H]1C[C@H](C)CC/C=C\[C@@H]2C[C@@]2(C(=O)NS(=O)(=O)C2CC2)NC(=O)[C@@H]2C[C@@H](Oc3ncc(OC)c4ccc(F)cc34)CN2C(=O)[C@H]1NC(=O)OC(C)(C)C(F)(F)F` [Compound 4002, 1,1,1-trifluoro-2-methylpropan-2-yl (2R,6S,7R,9R,13aS,14aR,16aS,Z)-14a-(cyclopropylsulfonylcarbamoyl)-7-ethyl-2-(7-fluoro-4-methoxyisoquinolin-1-yloxy)-9-methyl-5,16-dioxo-1,2,3,5,6,7,8,9,10,11,13a,14,14a,15,16,16a-hexadecahydrocyclopropa[e]pyrrolo[1,2-a][1,4]diazacyclopentadecin-6-ylcarbamate], the EC50 in test [1] and in test [2] was under 5.46 nM in each case.
With `CC[C@@H]1C[C@H](C)CC/C=C\[C@@H]2C[C@@]2(C(=O)NS(=O)(=O)C2CC2)NC(=O)[C@@H]2C[C@@H](Oc3nccc4cc(OC)c(F)cc34)CN2C(=O)[C@H]1NC(=O)OC(C)(C)C` [Compound 4003, tert-butyl (2R,6S,7R,9R,13aS,14aR,16aS,Z)-14a-(cyclopropylsulfonylcarbamoyl)-7-ethyl-2-(7-fluoro-6-methoxyisoquinolin-1-yloxy)-9-methyl-5,16-dioxo-1,2,3,5,6,7,8,9,10,11,13a,14,14a,15,16,16a-hexadecahydrocyclopropa[e]pyrrolo[1,2-a][1,4]diazacyclopentadecin-6-ylcarbamate], the EC50 in test [1] and in test [2] was under 5.46 nM each time.
`CC[C@@H]1C[C@H](C)CC/C=C\[C@@H]2C[C@@]2(C(=O)NS(=O)(=O)C2CC2)NC(=O)[C@@H]2C[C@@H](Oc3nccc4cc(OC)c(F)cc34)CN2C(=O)[C@H]1NC(=O)OC(C)(C)C(F)(F)F` [Compound 4004, 1,1,1-trifluoro-2-methylpropan-2-yl (2R,6S,7R,9R,13aS,14aR,16aS,Z)-14a-(cyclopropylsulfonylcarbamoyl)-7-ethyl-2-(7-fluoro-6-methoxyisoquinolin-1-yloxy)-9-methyl-5,16-dioxo-1,2,3,5,6,7,8,9,10,11,13a,14,14a,15,16,16a-hexadecahydrocyclopropa[e]pyrrolo[1,2-a][1,4]diazacyclopentadecin-6-ylcarbamate]: the concentration giving a half-maximal response (EC50) in test [1] and in test [2] was under 5.46 nM throughout.
As for `CC[C@@H]1C[C@H](C)CC/C=C\[C@@H]2C[C@@]2(C(=O)NS(=O)(=O)C2CC2)NC(=O)[C@@H]2C[C@@H](Oc3nccc4cc(OC)ccc34)CN2C(=O)[C@H]1NC(=O)OC(C)(C)C` [Compound 4005, tert-butyl (2R,6S,7R,9R,13aS,14aR,16aS,Z)-14a-(cyclopropylsulfonylcarbamoyl)-7-ethyl-2-(6-methoxyisoquinolin-1-yloxy)-9-methyl-5,16-dioxo-1,2,3,5,6,7,8,9,10,11,13a,14,14a,15,16,16a-hexadecahydrocyclopropa[e]pyrrolo[1,2-a][1,4]diazacyclopentadecin-6-ylcarbamate], the EC50 in test [1] and in test [2] was under 5.46 nM each time.
On to `CC[C@@H]1C[C@H](C)CC/C=C\[C@@H]2C[C@@]2(C(=O)NS(=O)(=O)C2CC2)NC(=O)[C@@H]2C[C@@H](Oc3nccc4cc(OC)ccc34)CN2C(=O)[C@H]1NC(=O)OC(C)(C)C(F)(F)F` [Compound 4006, 1,1,1-trifluoro-2-methylpropan-2-yl (2R,6S,7R,9R,13aS,14aR,16aS,Z)-14a-(cyclopropylsulfonylcarbamoyl)-7-ethyl-2-(6-methoxyisoquinolin-1-yloxy)-9-methyl-5,16-dioxo-1,2,3,5,6,7,8,9,10,11,13a,14,14a,15,16,16a-hexadecahydrocyclopropa[e]pyrrolo[1,2-a][1,4]diazacyclopentadecin-6-ylcarbamate], for which the EC50 in test [1] and in test [2] was under 5.46 nM throughout.
In the case of `C=C1C=Cc2c(O[C@@H]3C[C@H]4C(=O)N[C@]5(C(=O)NS(=O)(=O)C6CC6)C[C@H]5/C=C\CC[C@@H](C)C[C@@H](CC)[C@H](NC(=O)OC(C)(C)C)C(=O)N4C3)ncc(OC)c2C1` [Compound 4007], the EC50 in test [1] and in test [2] was under 5.46 nM throughout.
As to `COc1ccc2c(O[C@@H]3C[C@H]4C(=O)N[C@]5(C(=O)NS(=O)(=O)C6(C)CC6)C[C@H]5/C=C\CC[C@@H](C)C[C@@H](C)[C@H](NC(=O)OC(C)(C)C(F)(F)F)C(=O)N4C3)ncc(N3CCN(C)CC3)c2c1` [Compound 4013], the EC50 in test [1] (GETYPE1B) and in test [2] (GETYPE1A) was under 5.46 nM each time.
On to `COc1ccc2c(O[C@@H]3C[C@H]4C(=O)N[C@]5(C(=O)NS(=O)(=O)C6(F)CC6)C[C@H]5/C=C\CC[C@@H](C)C[C@@H](C)[C@H](NC(=O)C(C)(C)C)C(=O)N4C3)nccc2c1` [Compound 4015], for which the EC50 in test [1] and in test [2] was under 5.46 nM throughout.
Take `COc1ccc2c(O[C@@H]3C[C@H]4C(=O)N[C@]5(C(=O)NS(=O)(=O)C6(F)CC6)C[C@H]5/C=C\CC[C@@H](C)C[C@@H](C)[C@H](NC(=O)OC(C)C)C(=O)N4C3)nccc2c1` [Compound 4016]: the EC50 in test [1] and in test [2] was under 5.46 nM in each case.
Consider `CC(C)Oc1cnc(O[C@@H]2C[C@H]3C(=O)N[C@]4(C(=O)NS(=O)(=O)C5CC5)C[C@H]4/C=C\CC[C@@H](C)C[C@@H](C)[C@H](NC(=O)OC(C)(C)C(F)(F)F)C(=O)N3C2)c2cccc(Cl)c12` [Compound 4017], for which the EC50 in test [1] and in test [2] was under 5.46 nM throughout.
As to `COc1ccc2c(O[C@@H]3C[C@H]4C(=O)N[C@]5(C(=O)NS(=O)(=O)C6(F)CC6)C[C@H]5/C=C\CC[C@@H](C)C[C@@H](C)[C@H](NC(=O)OCC(C)C)C(=O)N4C3)nccc2c1` [Compound 4018], the EC50 in test [1] and in test [2] was under 5.46 nM each time.

A word on the EC50: it is the concentration that produces a half-maximal response.

The record behind these values is US9499550B2 (BRISTOL-MYERS SQUIBB COMPANY, priority 2012, dated 2016).
